Experimental data from patent publication US9675592B2, “Methods and compositions for bacteria infections” (priority 2013, dated 2017).

Columns and labels:
[1] = test system: vraSR promoter (Pvra-lux reporter in strain 923); experiment: Primary screen, relative luminescence (vraSR expression); details: primary screen, compound 10 μM with oxacillin 2 μg/mL; <0.50 = vraSR repressed = hit
[2] = test system: test strain 923 pPvra-lux (USA300 MRSA); experiment: Primary screen, relative growth in presence of oxacillin; details: compound 10 μM with oxacillin 2 μg/mL, absorbance 24 h, <0.50 = dead cells = hit

Row | Structure (SMILES) | RL avg (relative luminescence) [1] | RG avg (relative growth) [2]
1 | Cc1cccc(C(=O)Nc2nnc(-c3ccc(Br)cc3)o2)c1 [F2518-436] | −0.06 | 0.00
2 | Cc1ccc(C)c(-c2nnc(NC(=O)c3cccc(F)c3)o2)c1 [F2518-301] | −0.10 | −0.01
3 | O=C(Nc1nnc(-c2cccs2)o1)c1ccc(S(=O)(=O)N2CCCc3ccccc32)cc1 [F0559-350] | 0.11 | 0.43
4 | O=C(Nc1nnc(-c2ccncc2)o1)c1ccc(-c2ccccc2)cc1 [F0608-1080] | −0.04 | 0.03
5 | O=C(Nc1nnc(-c2cc(Cl)sc2Cl)o1)c1cccs1 [F1374-2664] | 0.32 | 0.00
6 | COc1ccccc1-c1nnc(NC(=O)c2cc(-c3cccs3)nc3ccccc23)o1 [F1374-255] | 0.36 | 0.00
7 | O=C(Nc1nnc(-c2cc(Cl)sc2Cl)o1)c1cccc(C(F)(F)F)c1 [F1374-2671] | 0.35 | 0.03
8 | O=C(Nc1nnc(C2COc3ccccc3O2)o1)c1ccc(S(=O)(=O)N2CCc3ccccc3C2)cc1 (centres unmarked) [F0608-728] | −0.01 | −0.02
9 | COc1cccc(-c2nnc(NC(=O)c3cccc(C(F)(F)F)c3)o2)c1 [F1374-352] | 0.41 | 0.03
10 | CCOc1cc(-c2nnc(NC(=O)C(c3ccccc3)c3ccccc3)o2)cc(OCC)c1OCC [F2517-165] | −0.07 | 0.31
11 | O=C(Nc1nnc(-c2cc3ccccc3o2)o1)c1nc2ccccc2s1 [F2273-415] | 0.22 | 0.27
12 | COc1cc(OC)cc(-c2nnc(NC(=O)c3ccc(Cl)s3)o2)c1 [F1374-666] | 0.34 | 0.05
13 | O=C(Nc1nnc(-c2cc(Cl)ccc2Cl)o1)c1cc(Cl)ccc1Cl [F2518-49] | −0.05 | −0.03
14 | COc1cccc2cc(-c3nnc(NC(=O)c4ccc(S(=O)(=O)N(C)C)cc4)o3)oc12 [F2273-29] | 0.29 | 0.16
15 | O=C(Nc1nnc(-c2ccccc2Cl)o1)c1ccc(Cl)s1 [F1374-36] | 0.35 | 0.04
16 | O=C(Nc1nnc(-c2ccccn2)o1)c1cc(Cl)cc(Cl)c1 [F0608-928] | 0.07 | −0.01
17 | COc1cc(-c2nnc(NC(=O)c3ccc(S(=O)(=O)N4CCCc5ccccc54)cc3)o2)cc(OC)c1OC [F0559-320] | −0.08 | 0.24
18 | COc1ccccc1-c1nnc(NC(=O)c2cc(-c3ccccc3)nc3ccccc23)o1 [F1374-254] | 0.36 | 0.06
19 | O=C(Nc1nnc(-c2ccc(Br)cc2)o1)c1cc(Cl)ccc1Cl [F2518-481] | −0.05 | 0.00
20 | O=C(Nc1nnc(-c2ccc(Cl)cc2)o1)c1ccc2ncsc2c1 [F1374-836] | 0.31 | −0.01
21 | CC1CC(C)CN(S(=O)(=O)c2ccc(C(=O)Nc3nnc(-c4ccc(Cl)s4)o3)cc2)C1 (centres unmarked) [F0559-376] | −0.02 | −0.08
22 | CCOc1cc(C(=O)Nc2nnc(-c3ccccc3SC)o2)cc(OCC)c1OCC [F2645-99] | 0.43 | 0.09
23 | COc1cccc2cc(C(=O)Nc3nnc(-c4ccc(Br)s4)o3)oc12 [F5093-196] | −0.01 | −0.01
24 | Cc1ccc(-c2nnc(NC(=O)c3ccc(C(=O)c4ccccc4)cc3)o2)c(C)c1 [F2518-168] | −0.07 | −0.03
25 | Cc1ccc(-c2nnc(NC(=O)c3ccc(S(=O)(=O)N4CCCCC4)cc3)o2)cc1C [F2767-26] | −0.05 | 0.03
26 | COc1cc(-c2nnc(NC(=O)c3cccc(Br)c3)o2)cc(OC)c1OC [F2517-14] | −0.07 | −0.03

Row | Structure (SMILES) | RL avg (relative luminescence) [1] | RG avg (relative growth) [2]
27 | COc1ccccc1-c1nnc(NC(=O)c2ccc(Cc3ccccc3)cc2)o1 [F1374-276] | 0.39 | 0.01
28 | COc1cc(-c2nnc(NC(=O)c3ccc(S(=O)(=O)N(C)c4ccccc4)cc3)o2)cc(OC)c1OC [F0559-307] | −0.08 | −0.04
29 | O=C(Nc1nnc(-c2ccccn2)o1)c1c(F)cccc1F [F0608-895] | −0.06 | 0.03
30 | O=C(Nc1nnc(-c2cc(Cl)ccc2Cl)o1)c1ccc(Br)s1 [F2518-41] | −0.03 | 0.00
31 | COc1cccc(-c2nnc(NC(=O)C(c3ccccc3)c3ccccc3)o2)c1 [F1374-379] | 0.34 | 0.47
32 | O=C(Nc1nnc(-c2ccc(F)cc2)o1)c1nc2ccccc2s1 [F1374-138] | 0.40 | 0.00
33 | COc1ccccc1-c1nnc(NC(=O)c2ccc(-c3ccccc3)cc2)o1 [F1374-220] | 0.35 | 0.01
34 | COc1cccc2cc(-c3nnc(NC(=O)c4nc5ccccc5s4)o3)oc12 [F2273-37] | 0.09 | 0.09
35 | O=C(Nc1nnc(-c2ccc(C(F)(F)F)cc2)o1)c1cc2ccccc2o1 [F1374-2134] | 0.38 | 0.20
36 | COc1ccc(OCc2noc(CNC(=O)Nc3ccc(Cl)c(Cl)c3)n2)cc1 [F5882-3269] | −0.02 | −0.01
37 | O=C(Nc1nnc(-c2ccc3c(c2)CCCC3)o1)c1nc2ccccc2s1 [F0608-570] | −0.07 | −0.05
38 | CCCCN(CC)S(=O)(=O)c1ccc(C(=O)Nc2nnc(-c3ccccc3Cl)o2)cc1 [F0559-36] | −0.16 | −0.08
39 | COc1ccc(-c2nnc(NC(=O)c3ccc(S(=O)(=O)N(C)Cc4ccccc4)cc3)o2)c(OC)c1 [F0559-398] | −0.11 | −0.07
40 | O=C(Nc1nnc(-c2cccs2)o1)c1cccc(C(F)(F)F)c1 [F1374-982] | 0.35 | 0.13
41 | O=C(COc1ccc(Cl)cc1)Nc1nnc(-c2ccc(Br)cc2)o1 [F2518-483] | −0.04 | −0.02
42 | O=C(Nc1nnc(-c2cc(Cl)ccc2Cl)o1)c1nc2ccccc2s1 [F2518-39] | −0.07 | −0.01
43 | COc1cc(OC)cc(-c2nnc(NC(=O)c3ccc(S(=O)(=O)N(C)c4ccccc4)cc3)o2)c1 [F0559-246] | −0.08 | −0.03
44 | COc1ccccc1-c1nnc(NC(=O)c2ccc(S(=O)(=O)N(Cc3ccccc3)C(C)C)cc2)o1 [F0559-148] | −0.04 | 0.02
45 | O=C(Nc1nnc(-c2ccco2)o1)c1ccc(Oc2ccccc2)cc1 [F0608-491] | −0.11 | −0.06
46 | O=C(Nc1nnc(-c2ccc3c(c2)CCCC3)o1)c1ccc(Cl)s1 [F0608-662] | −0.10 | −0.07
47 | COc1cccc(-c2nnc(NC(=O)c3ccc(Cl)cc3)o2)c1 [F1374-320] | 0.32 | 0.04
48 | Cc1ccc(-c2nnc(NC(=O)c3nc4ccccc4s3)o2)c(C)c1 [F2518-183] | −0.04 | 0.00
49 | COc1cc(OC)cc(-c2nnc(NC(=O)c3ccc(S(=O)(=O)N(CC(C)C)CC(C)C)cc3)o2)c1 [F0559-264] | −0.10 | −0.04
50 | CC(C)n1nccc1C(=O)Nc1nnc(-c2cc(Cl)sc2Cl)o1 [F1374-2902] | 0.33 | 0.00
51 | O=C(Nc1nnc(-c2cc(Cl)ccc2Cl)o1)c1ccccc1 [F2518-2] | 0.01 | −0.02
52 | COc1ccccc1-c1nnc(NC(=O)c2cccc(Br)c2)o1 [F1374-224] | 0.34 | −0.01
